Assay results from US11013723B1, “Solid forms of a thiazolidinone compound, compositions and methods of use thereof” (Celgene Corporation, priority 2018, dated 2021).
Peptide text beside a SMILES is read from it.

Experiment: Slurry ripening comparative co-crystal screening (solid form outcome)
Assay type: physicochemical
Details: Compound 1 + coformer; EtOAc saturated with coformer; cycled 25° C./5° C., 10 days
Method: In certain embodiments, for example, the method may comprise slurry ripening. […] In certain embodiments, the solvent is 1-butanol or toluene.
In certain embodiments, for example, the saturated coformer solution may be prepared by 1) combining the quantity of coformer in a quantity (for example, about 2 mL) of solvent; 2) mixing the combined quantities at a predetermined temperature (for example 23° C.) for a predetermined period of time (for example at least about 16 hours or less than about 16 hours) to form a suspension; and 3) filtering the suspension (for example filtering the suspension through an 0.2 micron PTFE filter if the solvent is an organic solvent or an 0.45 micron filter if the solvent is an organic solvent mixed with water). In certain embodiments, for example, the solvent may be selected from the group consisting of ethyl alcohol, a solution of ethyl acetate and heptane (for example a solution having an ethyl acetate to heptane at ratio of 2:8 v/v), a solution of acetonitrile and water (for example a solution having a acetonitrile to water ratio of 1:9 v/v), and t-butyl methyl ether (MTBE), or a combination of two or more of the foregoing.
A series of comparative crystallization experiments were conducted with 41 potential coformers and 7 solvents by two different methods.

Compound	Slurry ripening result, EtOAc
O=C(O)c1ccc2ccccc2c1O [1-Hydroxy-2-Naphthoic acid]	PCH
O=C(O)[C@H](O)[C@@H](O)C(=O)O [(+)-L-Tartaric acid]	F*
COC(=O)[C@H](Cc1ccccc1)NC(=O)[C@@H](N)CC(=O)O [Aspartame] (H-Asp-Phe-OMe)	A + F
(−)-L-Malic acid	PCH

Same assay, conditions: Compound 1 + coformer; EtOH saturated with coformer; cycled 25° C./5° C., 10 days

Compound	Slurry ripening result, EtOH
NC(=O)c1ccncc1 [Isonicotinamide]	B*
NC(=O)c1cccnc1 [Nicotinamide]	PCH
O=c1c(O)c(-c2ccc(O)c(O)c2)oc2cc(O)cc(O)c12 [Quercetin]	PCH
(−)-L-Malic acid	PCH

Same assay, conditions: Compound 1 + coformer; MTBE saturated with coformer; cycled 25° C./5° C., 10 days

Compound	Slurry ripening result, MTBE
O=C(O)c1ccc2ccccc2c1O [1-Hydroxy-2-Naphthoic acid]	A*
CC1(C(=O)O)CCC(C(=O)O)C1(C)C (stereo not drawn) [(+)-Camphoric acid]	PCH
O=C(O)[C@@H](O)c1ccccc1 [L-(+)-Mandelic acid]	PCH
Oc1cccc(O)c1O [Pyrogallol]	PCH
NC(N)=O [Urea]	PCH

Same assay, conditions: Compound 1 + coformer; Toluene saturated with coformer; cycled 25° C./5° C., 10 days

Compound	Slurry ripening result, Toluene
O=C(O)CC(=O)O [Malonic acid]	F*
